Results reported in patent publication US20230123334A1, “AMINO LIPID COMPOUND, PREPARATION METHOD THEREFOR, AND APPLICATION THEREOF” (SHENZHEN SHENXIN BIOTECHNOLOGY CO., LTD., priority 2020, published 2023).

Test system: HEK293 cells
Test: Preliminary screening as DNA vectors, GFP transfection of HEK293 cells
Type: cell-based
Conditions: amino lipid/DOPE liposome with 75 ng plasmid DNA (psin-EGFP-IRES-Puro); number of GFP-expressing cells divided by total nuclei (Hoechst)
Procedure: Cell line: HEK293 cells (ATCC CRL-1573™)
Medium: DMEM supplemented with 10% fetal bovine serum (Invitrogen)
Mode of screening: cell transfection on 96-well plates
Detection (readout): percentage of the number of GFP fluorescent cells relative to the total number of cells (the total number of cells was measured using nucleus dye Hoechst—see FIG. 2). Lipofectamine2000 (Invitrogen) was used as positive control, according to the manufacturer's instructions.
Method: an 8-channel pipette was used for sample addition. The contents shown were for a single well of a 96-well flat plate.
1. The compound (0.01 mmol) prepared in Example 1 was dissolved in 1 mL of anhydrous ethanol. After ultrasonically dissolved, 10 μL of the resultant amino lipid solution in ethanol was taken and mixed with 5 μL of DOPE solution in ethanol (0.01 m), and then to the obtained mixture was added 35 μL of 0.2M sodium acetate buffer (pH 5.6), and 50 μL of liposome solution was prepared by vortex at a constant rotating speed for 30 s. 4 μL was taken from the 50 μL liposome solution and added to 46 μL of 0.02M sodium acetate buffer (pH 5.6), and the final liposome solution was formed by vortex at a constant rotating speed for 30 s. 5 μL was taken from the final liposome solution and mixed with 75 ng plasmid DNA (psin-EGFP-IRES-Puro, Clontech) dissolved in 5 μL of 0.02 M sodium acetate buffer, and was allowed to stay at room temperature for 30 min to form a lipid/DNA transfection complex.
2. 10 μL of the lipid/DNA transfection complex was incubated at room temperature for 30 min, followed by addition of 90 μL of fresh resuspended cells (3-5×10^4 cells) and mixing with a pipette. 100 μL of cells+lipid/DNA complex was transferred to separate wells of a 96-well culture plate immediately, and placed in an incubator containing 5% CO2 at 37° C.
3. Hoechst33258 (Invitrogen) was added at a final concentration of 0.2 μg/mL to the cells 20 to 24 hours after initial cell transfection, and cultured in darkness at 37° C. for 15 min. Afterwards, the cells were washed once with a PBS solution, and then added with medium for culture for 20 to 24 h.
4. The cells were placed in a high-throughput confocal microscope (Molecular Devices ImageXpress), and four visual fields of the image of the cells were captured for each well, and images at three laser wavelengths were captured for each sample: bright field images of cells (FIG. 2(a) and FIG. 2(b)), Hoechst-staining images showing total nuclei (FIG. 2(c) and FIG. 2(d)) and GFP images showing success in transfection with the plasmid DNA and the expression of GFP (FIG. 2(e) and FIG. 2(f)). MetaXpress software was used to separately count the cells in the Hoechst-staining images and GFP images, and then the number of cells expressing GFP was divided by the total number of nuclei to give the absolute cell transfection efficiency. The absolute transfection efficiency was calculated as follows: […]

Row | Compound | Absolute DNA transfection efficiency in HEK293 cells
1 | CCCCCCCCCSc1nc(NCCCCCCCC)nc(NCCN(C)C)n1 [S9N8 D1] | 37.3%
2 | CCCCCCCCCCCCCCCSc1nc(NCCN2CCN(C)CC2)nc(N(CCCCCCCCCCCC)CCCCCCCCCCCC)n1 [S15^2N12 D5] | 0.7%
3 | CCCCCCCCCCCCCCCCNc1nc(NCC2CCN(C)CC2)nc(SCCCCCCCCCCCCCCC)n1 [S15N16 D10] | 0.3%
4 | CCCCCCCCCCCCCCCCSc1nc(NCCCN2CCOCC2)nc(SCCCCCC)n1 [S6S16 D8] | 0.0%
5 | CCCCCCCCCCCCCCCCCCNc1nc(NCC2CCN(C)CC2)nc(SCCCCCCCCCCCCCCCCCC)n1 [S18N18 D10] | 0.0%
6 | CCCCCCCCCNc1nc(NCCN2CCOCC2)nc(SCCCCCCCC)n1 [S8N9 D2] | 10.7%
7 | CCCCCCCCCCCCNc1nc(NCCN(C)C)nc(SCCCCCCCCC)n1 [S9N12 D1] | 39.3%
8 | CCCCCCCCCCCCCCSc1nc(NCCCCCC)nc(NCC2CCN(C)CC2)n1 [S14N6 D10] | 39.0%
9 | CCCCCCCCCCCCCCCCCCNc1nc(NCCCN2CCOCC2)nc(SCCCCCCCCCCCCCCCCCC)n1 [S18N18 D8] | 0.0%
10 | CCCCCCCCCCCCCCCNc1nc(NCCN2CCN(C)CC2)nc(SCCCCCCCCCCCCCCC)n1 [S15N15 D5] | 0.4%
11 | CCCCCCCCCCCCCCCCCCSc1nc(NCCCCCCCCCCCCCCC)nc(NCCN2CCCCC2)n1 [S18N15 D4] | 0.2%
12 | CCCCCCCCCCCCCCCSc1nc(NCCCCCCCCCCCC)nc(NCCN2CCN(C)CC2)n1 [S15N12 D5] | 5.7%
13 | CCCCCCCCCCCCCCCCNc1nc(NCCN(CC)CC)nc(SCCCCCCCCCCCC)n1 [S12N16 D7] | 3.6%
14 | CCCCCCCCCCCCCNc1nc(NCCN2CCCCC2)nc(SCCCCCCCCCCC)n1 [S11N13 D4] | 3.5%
15 | CCCCCCNc1nc(NCCN(CC)CC)nc(SCCCCCC)n1 [S6N6 D7] | 0.0%
16 | CCCCCCCCCCCCCCSc1nc(NCCCCCCCCCCC)nc(NCCCN(C)C)n1 [S14N11 D6] | 17.0%
17 | CCCCCCCCCCCCCCCSc1nc(NCCCN2CCN(C)CC2)nc(SCCCCCC)n1 [S6S15 D9] | 8.3%
18 | CCCCCCCCSc1nc(NCCN2CCCCC2)nc(SCCCCCCCC)n1 [S8S8 D4] | 11.2%
19 | CCCCCCCCCCSc1nc(NCCCCCCCC)nc(NCCCN2CCOCC2)n1 [S10N8 D8] | 3.4%
20 | CCCCCCCCCCCCCCCCCCSc1nc(NCCCCCC)nc(NCCCN2CCOCC2)n1 [S18N6 D8] | 5.5%
21 | CCCCCCCCSc1nc(NCC2CCN(C)CC2)nc(SCCCCCC)n1 [S6S8 D10] | 24.1%
22 | CCCCCCCCCCCCCCCCSc1nc(NCCCCCCCCCCC)nc(NCCCN2CCOCC2)n1 [S16N11 D8] | 5.0%
23 | CCCCCCCCCCCCCCCNc1nc(NCCN2CCCC2)nc(SCCCCCCCCCC)n1 [S10N15 D3] | 11.5%
24 | CCCCCCCCCCCCCCCCSc1nc(NCCN2CCCCC2)nc(SCCCCCC)n1 [S6S16 D4] | 7.9%
25 | CCCCCCCCCCCCCCCNc1nc(NCCN2CCOCC2)nc(SCCCCCCCCCC)n1 [S10N15 D2] | 1.4%
26 | CCCCCCCCCCCCCCCCCCNc1nc(NCCN(CC)CC)nc(SCCCCCCC)n1 [S7N18 D7] | 3.9%
27 | CCCCCCCSc1nc(NCCCCCC)nc(NCCN2CCCCC2)n1 [S7N6 D4] | 8.7%

Row | Compound | Absolute DNA transfection efficiency in HEK293 cells
28 | CCCCCCCCCCCCCCCCCCNc1nc(NCCN(C)C)nc(SCCCCCCCCCCCCCCCC)n1 [S16N18 D1] | 0.3%
29 | CCCCCCCCCCCSc1nc(NCCCN2CCOCC2)nc(SCCCCCCC)n1 [S7S11 D8] | 11.1%
30 | CCCCCCCCCSc1nc(NCCCCCCC)nc(NCC2CCN(C)CC2)n1 [S9N7 D10] | 9.3%
31 | CCCCCCCNc1nc(NCC2CCN(C)CC2)nc(SCCCCCCC)n1 [S7N7 D10] | 8.6%
32 | CCCCCCCCSc1nc(NCCN(C)C)nc(SCCCCCC)n1 [S6S8 D1] | 1.9%
33 | CCCCCCCCCCCSc1nc(NCCCN2CCN(C)CC2)nc(SCCCCCCC)n1 [S7S11 D9] | 25.9%
34 | CCCCCCCCCCCCCCCCSc1nc(NCCN(CC)CC)nc(SCCCCCCC)n1 [S7S16 D7] | 3.5%
35 | CCCCCCCCCCCSc1nc(NCCCCCCCC)nc(NCCCN2CCOCC2)n1 [S11N8 D8] | 12.2%
36 | CCCCCCCCCCCCCCCCSc1nc(NCCCN2CCOCC2)nc(SCCCCCCC)n1 [S7S16 D8] | 12.8%
37 | CCCCCCCCCCCCCCCNc1nc(NCCN2CCOCC2)nc(SCCCCCCCC)n1 [S8N15 D2] | 4.9%
38 | CCCCCCCCCCCCN(CCCCCCCCCCCC)c1nc(NCCN2CCN(C)CC2)nc(SCCCCCCCCC)n1 [S9^2N12 D5] | 0.3%
39 | CCCCCCCCCCCSc1nc(NCCCCCCC)nc(NCC2CCN(C)CC2)n1 [S11N7 D10] | 28.5%
40 | CCCCCCCCCCCCCCCNc1nc(NCC2CCN(C)CC2)nc(SCCCCCCCCC)n1 [S9N15 D10] | 19.0%
41 | CCCCCCCCCCCCCCCCCCSc1nc(NCCN2CCOCC2)nc(SCCCCCC)n1 [S6S18 D2] | 8.1%
42 | CCCCCCCCCCCNc1nc(NCCN(CC)CC)nc(SCCCCCCCCCC)n1 [S10N11 D7] | 5.0%
43 | CCCCCCCCSc1nc(NCCN2CCOCC2)nc(SCCCCCC)n1 [S6S8 D2] | 2.5%
44 | CCCCCCCCCCCCCCCCCCNc1nc(NCCCN2CCN(C)CC2)nc(SCCCCCCC)n1 [S7N18 D9] | 4.2%
45 | CCCCCCCCNc1nc(NCCCN2CCN(C)CC2)nc(SCCCCCC)n1 [S6N8 D9] | 1.2%
46 | CCCCCCCCCCCCCCCCSc1nc(NCCCCCCC)nc(NCCN2CCCCC2)n1 [S16N7 D4] | 6.9%
47 | CCCCCCCCCCCCCCCSc1nc(NCCCCCCCCC)nc(NCCN(CC)CC)n1 [S15N9 D7] | 16.4%
48 | CCCCCCCCCCCCCCCCCCNc1nc(NCCCN2CCOCC2)nc(SCCCCCCCCCC)n1 [S10N18 D8] | 0.3%
49 | CCCCCCCCCCCCCCCNc1nc(NCCCN(C)C)nc(SCCCCCCCCCCC)n1 [S11N15 D6] | 8.2%
50 | CCCCCCCCSc1nc(NCCN2CCCCC2)nc(SCCCCCC)n1 [S6S8 D4] | 1.3%
51 | CCCCCCCCCCCCNc1nc(NCCN2CCOCC2)nc(SCCCCCCCCCCCC)n1 [S12N12 D2] | 0.0%
52 | CCCCCCCCCSc1nc(NCCCCCCC)nc(NCCN2CCCCC2)n1 [S9N7 D4] | 21.9%
53 | CCCCCCCCCCCCCNc1nc(NCCN(CC)CC)nc(SCCCCCCCCCC)n1 [S10N13 D7] | 4.4%
